Reference: the NIST ThermoML archive (doi:10.1021/je900381r)
± gives the expanded uncertainty stated by the source.

Settings: Crystal; DTA

Normal melting temperature: 337.43 ± 1 °C
Compound: O=c1cc(-c2ccc(O)c(O)c2)oc2cc(O)cc(O)c12 [5,7,3',4'-tetrahydroxyflavone]
